# Experimental data from patent US20050074867A1, “Preservation of competent cells at ambient temperatures” (priority 2001, published 2005).
# Test system: logarithmic E. coli cells
# Test: Preservation survival and stability of logarithmic E. coli cells loaded in vitro before foam drying
# Type: cell-based
# Experimental: (3) Loading of fresh electrocompetent E. coli cells before preservation: When applicable, one aliquot of the cell concentrate (3.2 ml of cells in PBS buffer, approx. 2×10^10 cfu/ml) was mixed with 0.8 ml of 50% methyl-glucoside (MAG; 10% final concentration) and incubated at 37° C. for 30 minutes (in vitro loading). A second aliquot (3.2 ml of the cell concentrate) was mixed with 0.8 ml of PBS buffer and incubated on ice for 30 minutes (control, unloaded cells). Similar to loading with MAG, the cells were loaded with 2-deoxyglucose (2-DOG) as described in Example 5 infra.
# (4) Preservation of electrocompetent E. coli cells: The cells (resuspended in PBS buffer or on 20% sucrose) were mixed with an equal mass of preservation solution consisting of 45% 2:1 sucrose:raffinose or 45% 4:1 sucrose:MAG on ice. Altematively, the cell pellets were resuspended directly in 22.5% sucrose:raffinose or 22.5% 4:1 sucrose:MAG. The 0.5 g aliquots were distributed in 5 ml glass serum vials or 0.2 g aliquots were distributed in 1.2 ml glass serum vials. To determine the survival in preservation solution before drying, cell-containing mixtures were diluted in PBS buffer containing 20% sucrose and appropriate dilutions were spread plated in duplicate on L-agar plates.
# The samples were dried by foam formation. The mixtures were foamed at 0° C. and kept at that temperature until foam formation occurred. After foam was well formed, shelf temperature was increased to 20° C. and drying continued overnight (at least 12 hours).
# (5) Assaying the preserved E. coli cells: Dried samples were rehydrated at room temperature. 1 ml of rehydration solution (20% sucrose) was added to the 5 ml vials and 0.2 ml was added to the 1.2 ml vials. For the determination of preservation survival, rehydrated cells were diluted and spread plated in duplicate on L-agar plates. Plates were incubated at 37° C. overnight and colonies were counted the following day.
# Bacterial culture was grown until OD550=0.5 was reached (mid-log growth stage). The cell concentrates were prepared as described previously. Control cells, which were not loaded, were incubated on ice for 30 minutes. Cell concentrates were incubated with different amounts (0.15-1%, 5%, 10% and 15%) of glucose and glucose nonmetabolizable analogs at 37° C. for 30 minutes (loading). These mixtures were preserved as described previously.
# Accumulation of MAG in the cells prior to drying enhances preservation of logarithmic E. coli cells. Two cell concentrates (harvested at mid-log growth stage) were prepared as described previously. To induce uptake of MAG, 0.5% glucose was added to the growth medium (“induced culture”). Both concentrates were incubated with 10% MAG at 37° C. for 30 minutes (loading). When loading was completed, one concentrate was diluted 100-fold in PBS buffer and incubated at 37° C. for an additional 30 minutes to induce expulsion of the pre-accumulated MAG. Both concentrates were preserved as described previously.
# Mid-logarithmic culture was prepared as described previously. 0.5% glucose was added to the growth medium (“induced cells”). The culture was concentrated 10-fold and the concentrates were incubated for 30 minutes with 10% MAG at different temperatures (0, 20, 40, and 60° C.). The mixtures were preserved as described previously.
# Effect of incubation time on accumulation of MAG in logarithmic E. coli cells. Cell concentrates were prepared as described previously (0.5% glucose was added to the growth medium) and incubated with 10% MAG at 37° C. for 0, 2.5, 5, 15, 30, and 60 minutes. The mixtures were preserved as described previously.
# Effect of growth stage on accumulation of MAG in E. coli cells. E. coli cultures were grown in L-broth with 0.5% glucose as described previously and harvested at OD550=0.1 (early-log), 0.5 (mid-log), 1.0 (late-log) and 2.0 (stationary cells). The cells in each culture were concentrated and split in two aliquots. […]
compound,measurement,setting,value
"O=CC[C@@H](O)[C@H](O)[C@H](O)CO [Sample 2-DOG, 2-deoxyglucose]",survived drying,mid-logarithmic cells loaded with 0.1-1% at 37° C. for 30 minutes,9-12%
same,survived drying,mid-logarithmic cells loaded with 5% at 37° C. for 30 minutes,20%
same,survived drying,mid-logarithmic cells loaded with 10% at 37° C. for 30 minutes,16%
same,survived drying,mid-logarithmic cells loaded with 15% at 37° C. for 30 minutes,20%
